Laboratory results from patent US20200270216A1, “COMPOSITIONS AND METHODS FOR INHIBITING N-SMASE2” (The Regents of the University of California, priority 2017, published 2020).
“Also recorded” adds a separate entry of the source.

What was measured:
[1] = test system: HEK293T Tau RD P301S FRET biosensors; assay: P2-induced tau aggregation in Tau P301S FRET biosensors (microscopy, flow cytometry); format: cell-based
From the text: The tau biosensors were HEK293T cells, with stably expressed tau repeat domains with disease-associated mutation (P301S) fused to either CFP or YFP (HEK293T Tau RD P301S FRET biosensors) were transduced with pulled synaptosomal (P2) extracts from AD brains using lipofectamine 2000. Cultures treated with equal amount of empty liposomes were used as a control. […] Cells were imaged after 24 hrs using automated microscope imaging system (Lionheart FX) equipped with 20× objective and CFP-YFP FRET Image filter cube.
After sixty hours treatment, cells and cell medium were collected. Cells were prepared for flow cytometry and FRET signal was detected using LSRII flow cytometer (BD biosciences). Cells were back gated onto forward scatter versus side scatter to insure a single cell analysis, 5,000 cells were collected within the gate. FRET negative and FRET-positive cell populations were defined as previously described.

Thy1-aSyn mice = assay: Initial efficacy in Thy1-aSyn mice, aSyn immunofluorescence in substantia nigra; format: in vivo; conditions: Thy-1 aSyn mice, 100 mg/kg/day oral, 5 weeks
Experimental: Mice overexpressing human wild-type a-synuclein under control of the Thy-1 promoter (Thy1-aSyn mice) and control C57B1/6 mice were housed under a 12-hour light/dark cycle and had access to standard chow ad libitum. […] Two hours after the last dose, mice were euthanized by ketamine/xylazine over-anesthesia followed by cardiac puncture and saline transcardial perfusion. Brain tissue from individual mice were dissected.
All staining procedures and data collection were performed by investigators blinded to treatment. Double-immunofluorescence for Clone 42 Anti-aSyn/TH in SN (substantia nigra). Analysis of a-synuclein and tyrosine hydroxylase (TH, the marker of dopaminergic neurons) levels was performed in serially sectioned, free-floating vibratome sections. […]
For the quantification of aSyn and TH fluorescent immunolabeling images of immunofluorescence-labeled sections were acquired using an Agilent (Santa Clara, Calif.) microarray scanner equipped with a krypton/argon laser (647 nm) at 10 μm resolution with the photomultiplier tube set at 5% for aSyn and 10% for TH. Immunofluorescence intensity was measured using ImageJ in the appropriate region of interest. TH staining was quantified in the SN pars compact and SN pars reticulate. […]

O=c1[nH]c(=S)[nH]c(-c2ccccc2)c1Cc1c(O)ccc2ccccc12 [cambinol]
FRET-positive tau aggregates, microscopy ([1]; 10 μM, imaged after 24 hrs, vs DMSO (FIG. 3A)): visibly decreased; also recorded: Decrease in the tau aggregation | FRET-positive signal (integrated FRET density), flow cytometry ([1]; 10 uM, sixty hours treatment (FIG. 3B)): significant decrease | aSyn levels in the substantia nigra (SN) (Thy1-aSyn mice): trend to decrease
